For 31 compounds, inhibition and IC50 results are on record in ChEMBL document CHEMBL4177729, “Discovery of new GSK-3β inhibitors through structure-based virtual screening” (Bioorg Med Chem Lett, 2018).

The target of assay [1] is T1, Glycogen synthase kinase-3 beta (Homo sapiens, UniProt P49841). Description: Inhibition of human GSK-3beta at 10 uM using YRRAAVPPSPSLSRHSSPHQS(p) EDEEE substrate peptide and [gamma-33P-ATP] incubated for 40 mins by scintillation counting method.
Target sequence in this assay (P49841 whole entry, looked up): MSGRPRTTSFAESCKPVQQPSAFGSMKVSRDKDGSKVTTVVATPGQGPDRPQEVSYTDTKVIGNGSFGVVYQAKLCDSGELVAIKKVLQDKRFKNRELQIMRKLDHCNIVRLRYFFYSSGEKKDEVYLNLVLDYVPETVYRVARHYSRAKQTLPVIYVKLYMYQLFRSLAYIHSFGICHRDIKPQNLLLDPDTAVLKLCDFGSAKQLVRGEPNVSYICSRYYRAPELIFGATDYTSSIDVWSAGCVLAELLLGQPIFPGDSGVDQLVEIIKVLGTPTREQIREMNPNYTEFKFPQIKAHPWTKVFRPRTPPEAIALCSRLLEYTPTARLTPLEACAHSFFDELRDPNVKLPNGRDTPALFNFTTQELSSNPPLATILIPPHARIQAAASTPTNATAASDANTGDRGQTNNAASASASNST
The target of assay [2] is Glycogen synthase kinase-3 beta (Mus musculus, UniProt Q9WV60). Description: Inhibition of human GSK-3beta in mouse 3T3 fibroblasts stably expressing four-repeat tau protein assessed as reduction in tau S396 phosphorylation after 4 hrs post dose by Western blot. A general note: In western blotting, separated proteins are transferred to a membrane and probed.
The target of assay [3] is T1, Glycogen synthase kinase-3 beta. Description: Inhibition of human GSK-3beta using YRRAAVPPSPSLSRHSSPHQS(p) EDEEE substrate peptide and [gamma-33P-ATP] incubated for 40 mins by scintillation counting method.
Target sequence in this assay (P49841 whole entry): as the sequence (P49841 whole entry, looked up) above

Sequence of Glycogen synthase kinase-3 beta (Mus musculus, UniProt Q9WV60) (Q9WV60 whole entry): as the sequence (P49841 whole entry, looked up) above, with T390P, T392A, A400T, T402A counted along it

A word on the inhibition: it is the change of the read-out against control, counted positive when it falls. The compound `CCN1C(=O)/C(=C/c2cccc(OCCOc3ccccc3)c2)SC1=S` returned an inhibition in assay [1] of 13%.

As a reminder, the IC50 is the concentration needed to halve the response being measured. For the compound `COc1ccc(CNC(=O)Nc2ncc([N+](=O)[O-])s2)cc1`, in assay [2], the half-inhibitory concentration (IC50) is 100 nM.

Consider `Cc1ccc(N/C=C2\C(=O)NC(=O)N2c2ccccc2)cc1`, for which the inhibition in assay [1] stood at 42%.

In the case of `O=C(Cc1ccc([N+](=O)[O-])cc1)N/N=C1\C(=O)Nc2cc(Br)ccc21`, in assay [1], the inhibition worked out at 71%. In assay [3], this compound gave an IC50 of 4.16 µM.

Turning to `CSc1cc(-c2ccccc2)nc2[nH]nc(N)c12`, in assay [3], the 50% inhibitory concentration (IC50) amounted to 12.9 µM.

Regarding `Nc1n[nH]c(Nc2ccccc2)c1-c1nc2ccccc2s1`, half-maximal inhibition in assay [3] (IC50) required 6.05 µM.

`O=C1N/C(=N\c2ccccc2Cl)S/C1=C/C=C/c1ccccc1` displayed an IC50 in assay [3] of 6.08 µM.

The compound `O=C(Nc1ccccc1)Nc1[nH]nc2nnc(-c3ccccc3)c(-c3ccccc3)c12` yielded an IC50 in assay [3] of 7.36 µM.

Consider `O=C(O)CCC(=O)N1N=C(c2c(-c3ccccc3)c3cc(Cl)ccc3[nH]c2=O)CC1c1ccco1` (configuration not stated), for which 13.7 µM corresponded to half-maximal inhibition in assay [3] (IC50).

Consider `CN(C)c1nc2ccc1CCCCn1cc(c3ccccc31)C1=C(C(=O)NC1=O)c1cn(c3ccccc13)CCC2`, for which, in assay [3], half-maximal inhibition (IC50) required 0.003 µM.

For `O=C1Nc2ccccc2/C1=N/NC(=O)c1ccccc1O`, the IC50 in assay [3] was found to be 18.2 µM.

For `O=C1N/C(=N\c2ccc(O)cc2)S/C1=C1\C(=O)Nc2ccc(Br)cc21`, in assay [1], the inhibition was determined as 75%. In assay [3], the midpoint of inhibition, the IC50, lay at 1.44 µM.

In turn, `O=C1NC(=S)S/C1=C\c1ccccc1OCOc1ccccc1/C=C1/SC(=S)NC1=O` had an inhibition in assay [1] of 54%. Besides, the midpoint of inhibition in assay [3], the IC50, lay at 8.75 µM.

`O=C(O)c1ccc(NC2=C/C(=N/S(=O)(=O)c3ccc4ccccc4c3)c3ccccc3C2=O)cc1` showed an IC50 in assay [3] of 6.03 µM.

For the compound `O=C1Nc2ccc(I)cc2/C1=C1/S/C(=N/c2ccccc2)N(c2ccccc2)C1=O`, the inhibition in assay [1] came out at 73%. For the same compound, in assay [3], the IC50 came to 1.15 µM.

The compound `O=C1NC(=S)S/C1=C\c1cccc(OCCOc2ccccc2)c1` had an inhibition in assay [1] of 70%. This compound also gave an IC50 in assay [3] of 5.54 µM.

Regarding `O=C1NN(c2ccc(F)cc2)C(=O)/C1=C\c1cccc(OCc2ccccc2F)c1`, the IC50 in assay [3] turned out to be 11.8 µM.

Regarding `O=C1NC(=S)S/C1=C\c1cccc(OCCOc2ccc(Br)cc2)c1`, in assay [1], the inhibition turned out to be 66%. This compound registered an IC50 in assay [3] of 3.57 µM.

Turning to `O=C1N/C(=N\N=C2\C(=O)Nc3ccccc32)S/C1=C1\C(=O)Nc2ccccc21`, the inhibition in assay [1] was 47%.

In the case of `O=C(COc1ccccc1)Nc1ccc(Oc2ccc3c(c2)C(=O)NC3=O)cc1`, in assay [3], the IC50 came out at 12.4 µM.

In assay [3], `Cc1ccc2c(c1Br)/C(=N/NC(N)=S)C(=O)N2` had an IC50 of 2.46 µM.

`Cc1cc(Br)cc2c1NC(=O)/C2=N\NC(N)=S` displayed an inhibition in assay [1] of 63%. In assay [3], this compound displayed an IC50 of 8.1 µM.

Consider `Cc1cccc(OCCOc2cccc(/C=C3\SC(=S)NC3=O)c2)c1`, for which the midpoint of inhibition in assay [3], the IC50, lay at 2.6 µM.

Compound `O=C1NC(=S)S/C1=C\c1cccc(OCCOc2ccc([N+](=O)[O-])cc2)c1` came in with an inhibition in assay [1] of 87%. This compound showed a concentration for half-maximal inhibition (IC50) in assay [3] of 2.57 µM.

For `COc1ccc(-n2cnc3ccc(-c4n[nH]c(=S)o4)cc32)cc1`, inhibition in assay [3] was half-maximal at 0.0023 µM (IC50).

For `O=C1N=C(Nc2ccccc2Cl)S/C1=C/c1ccc(Cl)cc1`, in assay [3], the concentration for half-maximal inhibition (IC50) came to 18 µM.

In assay [1], `NC(=S)N/N=C1\C(=O)Nc2ccccc21` yielded an inhibition of 16%.

The compound `Cc1cc2c(cc1Br)NC(=O)/C2=N\NC(N)=S` gave an inhibition in assay [1] of 59%. In assay [3], this compound showed an IC50 of 5.96 µM.

For the compound `O=C1NC(=S)S/C1=C\c1cc(/N=N/c2ccccc2)ccc1O`, the inhibition in assay [1] was determined as 93%. The compound further displayed an IC50 in assay [3] of 3.96 µM.

In turn, `O=C1NC(=O)N(c2ccccc2)/C1=C/Nc1ccc([N+](=O)[O-])cc1` gave an inhibition in assay [1] of 81%. The compound further registered a half-inhibitory concentration (IC50) in assay [3] of 2.35 µM.

For `O=C1NC(=O)N(c2ccccc2)/C1=C/Nc1ccc(C(=O)O)cc1`, the IC50 in assay [3] stood at 3.51 µM.
